In US20250368633A1, “AZEPINE FUSED RING COMPOUND AS RIPK1 INHIBITOR AND USE THEREOF” (ARTIVILA BIOPHARMA, priority 2022, published 2025):

Tests used:
RIPK1 kinase = target: T1, RIPK1 kinase (Homo sapiens, UniProt Q13546); test: In vitro RIPK1 kinase activity assay (ADP-Glo), inhibition by compounds at 1 μM; assay type: biochemical; details: compound 1 μM; ATP 10 μM; MBP substrate 100 μg/mL; read-out: RIPK1 kinase activity inhibition rate range
T1 construct: purchased Promega VA7593
T1 sequence (Q13546 1-671): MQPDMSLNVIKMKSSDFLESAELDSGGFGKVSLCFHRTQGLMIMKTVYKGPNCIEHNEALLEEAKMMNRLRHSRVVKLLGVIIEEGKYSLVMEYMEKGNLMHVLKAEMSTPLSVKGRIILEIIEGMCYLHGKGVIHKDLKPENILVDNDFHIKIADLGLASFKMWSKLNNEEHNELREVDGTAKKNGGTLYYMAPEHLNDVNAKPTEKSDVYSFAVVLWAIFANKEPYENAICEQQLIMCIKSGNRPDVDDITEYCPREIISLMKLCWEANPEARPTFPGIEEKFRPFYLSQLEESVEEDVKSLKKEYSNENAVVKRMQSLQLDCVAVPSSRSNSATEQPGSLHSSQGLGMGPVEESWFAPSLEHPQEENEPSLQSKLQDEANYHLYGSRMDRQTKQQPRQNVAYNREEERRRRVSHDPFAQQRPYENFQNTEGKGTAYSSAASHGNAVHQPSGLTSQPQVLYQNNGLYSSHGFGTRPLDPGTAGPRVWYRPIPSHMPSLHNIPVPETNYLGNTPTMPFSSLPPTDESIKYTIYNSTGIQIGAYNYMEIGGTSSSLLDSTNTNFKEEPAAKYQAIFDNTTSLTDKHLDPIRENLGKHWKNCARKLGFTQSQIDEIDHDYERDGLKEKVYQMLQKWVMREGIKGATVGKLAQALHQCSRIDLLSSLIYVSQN
Procedure, shortened: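 Read by ADP-Glo chemiluminescence as percent inhibition: RIPK1 kinase, 15-min room-temperature compound preincubation, then 1-h reaction with MBP (100 μg/mL final) and ATP (10 μM final). Enzyme level was set by titration.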

U937 cells = test: Inhibition rate of compound (1 μM) on necroptosis of U937 cells (TSZ-induced, CellTiter-Glo); assay type: cell-based; details: TSZ (hTNF-α, SM-164, Z-VAD-FMK) 20 hours
Procedure, shortened: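 Percent inhibition comes from ATP luminescence (CellTiter-Glo), referenced to wells without TSZ and wells with TSZ alone. The compound was added to U937 cells 15 min ahead of a TNF-α/SM-164/Z-VAD-FMK mix, followed by 20 h culture at 37° C, 5% CO2.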

Row | Structure (SMILES) | inhibition at 1 µM (RIPK1 kinase) | Inhibition rate range of compounds (1 μM) on U937 cell necroptosis (U937 cells)
1 | COC(=O)C1(C#Cc2ccc3c(c2)N(C)C(=O)[C@@H](NC(=O)C(=O)NCCc2ccccc2)CO3)CC1 [Example 96, methyl (S)-1-((5-methyl-4-oxo-3-(2-oxo-2-(phenethylamino)acetamido)-2,3,4,5-tetrahydrobenzo[b][1,4]oxazepin-7-yl)ethynyl)cyclopropane-1-carboxylate] | ≥ 75% | B (B: 50-89%)
2 | CN1C(=O)[C@@H](NC(=O)C(=O)NCCc2cccs2)COc2ccccc21 [Example 97, (S)—N^1-(5-methyl-4-oxo-2,3,4,5-tetrahydrobenzo[b][1,4]oxazepin-3-yl)-N^2-(2-(thiophen-2-yl)ethyl)oxalamide] | ≥ 75% | A (A: ≥90%)
3 | CN1C(=O)[C@@H](NC(=O)C(=O)NCCc2ccsc2)COc2ccccc21 [Example 98, (S)—N-(5-methyl-4-oxo-2,3,4,5-tetrahydrobenzo[b][1,4]oxazepin-3-yl)-N^2-(2-(thiophen-3-yl)ethyl)oxalamide] | ≥ 75% | A (A: ≥90%)
